# Results reported in ChEMBL document CHEMBL1201862, “PubChem BioAssay data set” (2004).
# The source made the active and inactive calls.
# Test system: not listed separately
# Test: cells
# Type: functional, cell-based
# Settings: not given
row,SMILES,EC50
1,O=C(N/N=C/c1ccccc1O)/C(=C/c1ccccc1)CCO,50.4 µM (active)

# Test system: not listed separately
# Test: cells
# Type: functional, cell-based
# Settings: not given
# Remark: another data set of the same source
row,SMILES,EC50
1,O=C(N/N=C/c1ccccc1O)/C(=C/c1ccccc1)CCO,> 350 µM (not active)

# Test system: not listed separately
# Test: viability of PTEN-deleted HCT116 cells – cell-based, HCT116 PTEN knockout, dose response (AID 1047);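 note: HCT116 colon tumor cells with PTEN knocked out; cells exposed to compound for 60 hours before readout; potency for loss of cell viability measured by luminescence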
# Type: functional
# Settings: not given
row,SMILES,EC50
1,CN(C)c1nn(C(=O)Nc2cccc(C(F)(F)F)c2)cc1-c1ccccc1,42.1 µM (active)

# Target: Cytochrome P450 2C19 (Homo sapiens, UniProt P33261)
# Sequence (P33261 whole entry): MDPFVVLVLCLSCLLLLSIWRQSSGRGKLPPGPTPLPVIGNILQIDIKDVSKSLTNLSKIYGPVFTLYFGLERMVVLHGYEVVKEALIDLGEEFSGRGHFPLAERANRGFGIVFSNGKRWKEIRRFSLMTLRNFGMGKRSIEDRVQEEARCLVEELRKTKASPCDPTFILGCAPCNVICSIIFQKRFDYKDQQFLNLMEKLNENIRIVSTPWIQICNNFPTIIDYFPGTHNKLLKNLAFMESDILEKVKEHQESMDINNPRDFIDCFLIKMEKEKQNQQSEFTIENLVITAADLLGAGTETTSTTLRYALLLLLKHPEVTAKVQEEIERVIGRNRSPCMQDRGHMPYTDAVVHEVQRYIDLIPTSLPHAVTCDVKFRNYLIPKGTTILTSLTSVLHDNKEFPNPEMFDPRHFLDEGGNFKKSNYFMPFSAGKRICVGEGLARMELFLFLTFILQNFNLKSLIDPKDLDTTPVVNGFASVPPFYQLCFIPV
# Test: Cytochrome panel assay with activity outcomes. Panel member name: p450-cyp2c19 Compounds with AC50 equal or less than 10 uM are considered active
# Type: functional
# Settings: read-out: AC50
row,SMILES,AC50
1,O=C1NC(=O)N(CCNc2ncc(C(F)(F)F)cc2Cl)C(=O)C1/C=N/OCc1c(F)cccc1Cl (centres undefined),8.91 µM (inconclusive)

# Test system: INS1
# Test: INS-1E survival protection against cytokine death – cell-based, luminescence, retest, dose response (AID 449756);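 note: cell death triggered by IL-1 beta plus TNF-alpha plus IFN-gamma mixture; protective hits raise ATP signal compared with cytokine alone wells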
# Type: functional
# Settings: Rattus norvegicus
row,SMILES,AC50
1,O=C(N/N=C/c1ccccc1O)/C(=C/c1ccccc1)CCO,2.57 µM (active)

# Test system: H9c2;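 note: confirmatory concentration-response retest of ultra-high-throughput screening hits for modulation of myocardial damage; cell death induced by hydrogen peroxide oxidative stress; compound pretreatment for 60 min then peroxide exposure for 2 h; potency is for protecting the cells against peroxide damage rather than for killing them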
# Test: cells
# Type: functional, cell-based
# Settings: Rattus norvegicus, H9c2, Myocardium
row,SMILES,IC50
1,Cc1ccc(CNC(=O)CCc2nc(O)c3ccccc3n2)cc1,12.5 µM (active)
2,Cc1cnc(NC(=O)CSc2nc(O)c3ccccc3n2)s1,> 79 µM (inactive)
3,COc1cc(-c2cc(C(=O)N3CCN(c4ccccn4)CC3)c3ccccc3n2)cc(OC)c1OC,> 79 µM (inactive)
4,CCOC(=O)CSc1nc(O)c2ccccc2n1,> 79 µM (inactive)
5,O=C(NN=Cc1cccc([N+](=O)[O-])c1)c1cc(-c2cccnc2)nc2ccccc12,> 79 µM (inactive)
6,O=C(Nc1ccc2nc(N3CCOCC3)sc2c1)c1cc2ccccc2o1,> 79 µM (inactive)
7,COc1cc(/C=N/NC(=O)NC23CC4CC(CC(C4)C2)C3)ccc1OCC(N)=O,> 79 µM (inactive)
8,CCn1c(O)c(/C=N/N=C2CCCCC2)c2cc(C3=NNC(=O)CC3)ccc21,> 79 µM (inactive)

# Target: T1, Corticotropin-releasing factor receptor 2/Corticotropin-releasing factor-binding protein (Homo sapiens, UniProt P24387+Q13324)
# T1 sequence (Q13324 whole entry): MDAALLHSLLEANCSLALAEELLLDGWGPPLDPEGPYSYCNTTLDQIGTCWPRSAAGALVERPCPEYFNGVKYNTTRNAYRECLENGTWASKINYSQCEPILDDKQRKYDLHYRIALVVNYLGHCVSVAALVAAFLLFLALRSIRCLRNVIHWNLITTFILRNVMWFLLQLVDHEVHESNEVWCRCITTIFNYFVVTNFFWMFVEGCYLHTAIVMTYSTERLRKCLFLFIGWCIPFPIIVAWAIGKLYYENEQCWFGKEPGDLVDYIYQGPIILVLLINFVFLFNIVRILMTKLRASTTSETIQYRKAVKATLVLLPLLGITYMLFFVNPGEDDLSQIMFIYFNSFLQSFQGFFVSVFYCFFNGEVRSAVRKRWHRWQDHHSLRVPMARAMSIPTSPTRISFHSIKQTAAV
# T1 sequence (P24387 whole entry): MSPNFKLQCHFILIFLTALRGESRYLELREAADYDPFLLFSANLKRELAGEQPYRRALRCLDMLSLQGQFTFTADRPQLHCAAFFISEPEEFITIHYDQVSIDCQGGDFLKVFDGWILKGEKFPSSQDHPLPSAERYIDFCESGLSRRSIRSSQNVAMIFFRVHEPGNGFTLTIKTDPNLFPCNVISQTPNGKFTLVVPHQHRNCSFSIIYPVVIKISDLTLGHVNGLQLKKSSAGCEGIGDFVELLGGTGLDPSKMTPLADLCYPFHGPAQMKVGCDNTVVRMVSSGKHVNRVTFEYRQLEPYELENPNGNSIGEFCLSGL
# Test: Dose Response confirmation of uHTS hits for small molecule antagonists of the CRF-binding protein and CRF-R2 receptor complex.
# Type: functional
# Settings: read-out: IC50_Mean
row,SMILES,IC50
1,CC(C)COc1ccc(CN=C(S)Nc2ccccc2)cc1Cl,> 47.1 µM (inactive)
2,Clc1ccc(-c2nnc(NCc3ccccc3)c3ccccc23)cc1,> 47.1 µM (inactive)
3,CN(Cc1cccc(Cl)c1)C(=O)C1CCC(=O)N(C2CC2)C1 (centres undefined),> 47.1 µM (inactive)
4,CCN(CC)S(=O)(=O)c1ccc2c(c1)N(CC(=O)NCc1ccco1)C(=O)CO2,> 47.1 µM (inactive)
5,COc1ccc(C(=O)Nc2ccc3nc4n(c(=O)c3c2)CCCCC4)cc1OC,> 47.1 µM (inactive)
6,O=C(Nc1ccc(Cl)cn1)c1cccc(S(=O)(=O)N2CCCC2)c1,> 47.1 µM (inactive)
7,Cc1ccc(C(=O)NCc2cccnc2)o1,> 47.1 µM (inactive)
8,CCN(CC(=O)Nc1c(F)cccc1F)C(=O)c1ccc(S(=O)(=O)N2CCC(C)CC2)cc1,> 47.1 µM (inactive)
9,O=C(CCN1CCCCC1)c1ccc2c(c1)OCO2,> 47.1 µM (inactive)
10,O=S(=O)(NC(=S)NC1CCCCC1)c1ccc(Br)cc1,> 47.1 µM (inactive)
11,Cc1ccc(N(C(=O)Cn2nnc(-c3ccccc3F)n2)C(C(=O)NC2CCCC2)c2ccncc2)cc1 (centres undefined),> 47.1 µM (inactive)
12,O=C1NC(=O)N(CCNc2ncc(C(F)(F)F)cc2Cl)C(=O)C1/C=N/OCc1c(F)cccc1Cl (centres undefined),> 47.1 µM (inactive)

# Target: T1, Corticotropin-releasing factor receptor 2/Corticotropin-releasing factor-binding protein
# Test: activators of CRF receptor 2 with binding protein – uHTS hits, confirmation (AID 602473)
# Type: functional
# Settings: read-out: EC50_Mean
row,SMILES,EC50
1,CC(C)COc1ccc(CN=C(S)Nc2ccccc2)cc1Cl,> 53 µM (inactive)
2,Clc1ccc(-c2nnc(NCc3ccccc3)c3ccccc23)cc1,> 53 µM (inactive)
3,CN(Cc1cccc(Cl)c1)C(=O)C1CCC(=O)N(C2CC2)C1 (centres undefined),> 53 µM (inactive)
4,CCN(CC)S(=O)(=O)c1ccc2c(c1)N(CC(=O)NCc1ccco1)C(=O)CO2,> 53 µM (inactive)
5,COc1ccc(C(=O)Nc2ccc3nc4n(c(=O)c3c2)CCCCC4)cc1OC,> 53 µM (inactive)
6,O=C(Nc1ccc(Cl)cn1)c1cccc(S(=O)(=O)N2CCCC2)c1,> 53 µM (inactive)
7,Cc1ccc(C(=O)NCc2cccnc2)o1,> 53 µM (inactive)
8,CCN(CC(=O)Nc1c(F)cccc1F)C(=O)c1ccc(S(=O)(=O)N2CCC(C)CC2)cc1,> 53 µM (inactive)
9,O=C(CCN1CCCCC1)c1ccc2c(c1)OCO2,> 53 µM (inactive)
10,O=S(=O)(NC(=S)NC1CCCCC1)c1ccc(Br)cc1,> 53 µM (inactive)
11,Cc1ccc(N(C(=O)Cn2nnc(-c3ccccc3F)n2)C(C(=O)NC2CCCC2)c2ccncc2)cc1 (centres undefined),> 53 µM (inactive)
12,Cc1cc(NC(=O)C(C)C)ncc1NC(=O)CCc1ccccc1,> 53 µM (inactive)
13,O=C1NC(=O)N(CCNc2ncc(C(F)(F)F)cc2Cl)C(=O)C1/C=N/OCc1c(F)cccc1Cl (centres undefined),> 53 µM (inactive)

# Target: Cytochrome P450 3A4 (Homo sapiens, UniProt P08684);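 note: CYP3A4 tested as one member of a cytochrome P450 panel screen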
# Sequence (P08684 whole entry): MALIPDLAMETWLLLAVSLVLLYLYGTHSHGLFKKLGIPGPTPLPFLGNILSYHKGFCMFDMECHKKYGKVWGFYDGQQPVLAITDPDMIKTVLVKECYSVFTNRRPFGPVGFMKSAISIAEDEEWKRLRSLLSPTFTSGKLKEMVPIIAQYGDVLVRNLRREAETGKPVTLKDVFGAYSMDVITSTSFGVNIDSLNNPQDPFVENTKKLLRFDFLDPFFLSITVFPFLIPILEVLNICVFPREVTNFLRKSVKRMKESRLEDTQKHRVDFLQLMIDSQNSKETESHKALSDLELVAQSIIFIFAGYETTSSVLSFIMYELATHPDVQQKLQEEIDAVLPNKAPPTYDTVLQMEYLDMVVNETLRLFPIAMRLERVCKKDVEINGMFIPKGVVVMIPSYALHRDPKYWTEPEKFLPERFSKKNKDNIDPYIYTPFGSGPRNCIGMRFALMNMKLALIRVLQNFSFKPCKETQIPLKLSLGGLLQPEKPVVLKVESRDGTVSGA
# Test: not given
# Settings: not given
row,SMILES,AC50
1,O=C1NC(=O)N(CCNc2ncc(C(F)(F)F)cc2Cl)C(=O)C1/C=N/OCc1c(F)cccc1Cl (centres undefined),3.16 µM (inconclusive)
